Read-outs that look alike come from different tables or passages of the source.
What was measured:
[1] = molecular target: mammalian complex I and III (Sus scrofa, UniProt F1RNZ1+P24964); assay: NADH-cytochrome c reductase activity in porcine mitochondria; assay type: biochemical
Method: Porcine mitochondria were prepared as described previously. NADH-cytochrome c (NADH-cyt c) activity was measured at 25 °C in 1 mL of the reaction mixture containing 1 mM MgCl2, 2 mM KCN, and 20 μM cytochrome c in 30 mM potassium phosphate buffer, pH 7.5. Activity was measured by recording the absorbance change of cytochrome c at 550 nm after the reaction was initiated by the addition of 20 μM NADH. Various concentrations of siccanin dissolved in DMSO were added to reaction mixtures 5 min before the initiation of the reactions. Selectivity was calculated as the ratio of mammalian to P. falciparum IC50s.

[2] = test system: P. falciparum (synchronized ring-form parasites); assay: Assessment of parasite survival, Giemsa-stained smears; assay type: cell-based, Plasmodium falciparum; conditions: 50 µM siccanin; 16, 24, 32, 48 h
Method: Synchronized ring-form parasites (2% parasitemia) were prepared in complete medium containing 50 µM siccanin (at a fixed final DMSO concentration of 0.1% (v/v)) and distributed to 24-well plates at 1 mL/well. After incubation for 16, 24, 32, and 48 h, parasitemia was assessed under the microscope using thin blood smears stained with Giemsa.

[3] = test system: P. falciparum 3D7; assay: Drug sensitivity assay, 72 h, PfLDH-based; assay type: cell-based; conditions: Plasmodium falciparum
Method: The P. falciparum 3D7 strain was cultured, as described previously, in 3% hematocrit type A human red blood cells (RBCs) in RPMI1640 medium (Invitrogen; San Diego, CA, USA) supplemented with 25 mM sodium hydrogen biocarbonate, 10 μg/mL hypoxanthine, 40 μg/mL gentamicin sulfate, and 0.5% (w/v) Albumax II (Invitrogen) (“complete medium”). Cultures were maintained in a MG-70M multi-gas incubator (Taitec) under the conditions of 5% O2, 5% CO2, and 90% N2 at 37 °C. The medium was replaced daily. Parasitemia was measured by thin blood smears stained with Giemsa. In our previous study, we generated mutant P. falciparum strains expressing either disrupted or full-length versions of the flavoprotein (Fp) subunit (encoded by the Pfsdha gene). Both strains were cultured in complete medium at 3% hematocrit supplemented with 5 nM WR99210 (Jacobus Pharmaceuticals; Plainsboro, NJ, USA). The experiments using human RBCs were performed under the guidelines of Research Ethics Committee of the Faculty of Medicine of the University of Tokyo and Institutional Review Board (IRB) of Nagasaki University (Permission nos. 10050 and no. 19, respectively). Human RBCs were obtained from The Japanese Red Cross Society. The synchronization of parasite cultures was performed by treating with 5% (w/v) sorbitol for 10 min [77].
Synchronized ring-form parasites (0.3% parasitemia) were prepared in complete medium containing different concentration of various compounds (at a fixed final DMSO concentration of 0.1% (v/v)) and distributed to 96-well plates at 100 μL/well. After 72 h of incubation, parasite growth was monitored by the previously described lactate dehydrogenase (PfLDH)-based assay method; plates were read using a SpectraMax® Paradigm spectrophotometer (Molecular Devices, Inc.; San Jose, CA, USA). EC50 values were calculated using Prism® ver.6.01 (GraphPad; San Diego, CA, USA). Values are presented as the means of three independent experiments.

[4] = test system: glycerol-3-phosphate dehydrogenase (G3PDH); assay: G3PDH activity, crude mitochondrial fraction, DCIP reduction; assay type: biochemical, Plasmodium falciparum
Method: A synchronized parasite culture was grown for 64 h and a crude mitochondrial fraction was prepared from trophozoite-stage cells (as confirmed by Giemsa staining). Infected red blood cells were collected by centrifugation at 800× g for 5 min at 4 °C and incubated for 5 min at room temperature with 40 mL of 0.075% (w/v) saponin in AIM buffer (120 mM KCl, 20 mM NaCl, 10 mM PIPES (1,4-piperazinediethanesulfonic acid) buffer [pH 6.7], 1 mM MgCl2, 5 mM glucose). Released parasites were collected by centrifugation at 2780× g for 7 min at 4 °C and washed three times with AIM buffer. […]
Complex II, DHODH, MQO, NDH2, G3PDH, and dihydroorotate-cytochrome c (DHO-cyt c) reductase activities were measured, as described previously, using a V-660 spectrophotometer (JASCO; Tokyo, Japan). Briefly, complex II activity was measured at 25 °C in a 1 mL reaction mixture containing 45 μM 2,6-dichlorophenolidophenol (DCIP), 100 μM ubiquinone-2 (UQ2), and 2 mM KCN in 50 mM potassium phosphate buffer, pH 8.0. DHODH, MQO, and G3PDH activities were measured at 25 °C in 1 mL of the reaction mixture containing 45 μM DCIP, 100 μM UQ2, and 2 mM KCN in 30 mM Tris-HCl buffer, pH 8.0. […] NDH2 activity was measured at 25 °C in 1 mL of the reaction mixture containing 100 µM UQ1 and 2 mM KCN in 50 mM potassium phosphate buffer, pH 8.0. […]

[5] = test system: T. mentagrophytes complex II; design: method as in PMID 4250609; conditions: ref [31]; read-out: IC50, T. mentagrophytes enzyme; cited from earlier work

mammalian complex I and III, sequence (F1RNZ1 entry or part of it): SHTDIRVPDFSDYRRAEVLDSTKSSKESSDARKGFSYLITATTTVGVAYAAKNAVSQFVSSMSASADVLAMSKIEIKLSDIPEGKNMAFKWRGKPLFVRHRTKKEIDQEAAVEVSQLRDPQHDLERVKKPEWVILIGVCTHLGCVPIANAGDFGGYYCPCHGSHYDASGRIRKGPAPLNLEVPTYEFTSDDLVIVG
mammalian complex I and III, sequence (P24964 whole entry): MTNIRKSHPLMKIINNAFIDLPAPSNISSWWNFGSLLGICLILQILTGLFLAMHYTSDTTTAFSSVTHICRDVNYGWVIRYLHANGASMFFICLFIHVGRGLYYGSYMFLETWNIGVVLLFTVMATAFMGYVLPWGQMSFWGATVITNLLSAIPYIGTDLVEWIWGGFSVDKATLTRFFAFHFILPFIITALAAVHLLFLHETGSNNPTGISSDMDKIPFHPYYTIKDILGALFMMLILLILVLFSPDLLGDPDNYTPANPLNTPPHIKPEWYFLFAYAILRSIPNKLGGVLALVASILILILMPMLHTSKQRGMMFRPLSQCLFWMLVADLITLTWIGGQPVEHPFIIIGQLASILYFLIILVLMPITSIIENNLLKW
mammalian complex I and III, sequence (F1SKM0 entry or part of it, further chain): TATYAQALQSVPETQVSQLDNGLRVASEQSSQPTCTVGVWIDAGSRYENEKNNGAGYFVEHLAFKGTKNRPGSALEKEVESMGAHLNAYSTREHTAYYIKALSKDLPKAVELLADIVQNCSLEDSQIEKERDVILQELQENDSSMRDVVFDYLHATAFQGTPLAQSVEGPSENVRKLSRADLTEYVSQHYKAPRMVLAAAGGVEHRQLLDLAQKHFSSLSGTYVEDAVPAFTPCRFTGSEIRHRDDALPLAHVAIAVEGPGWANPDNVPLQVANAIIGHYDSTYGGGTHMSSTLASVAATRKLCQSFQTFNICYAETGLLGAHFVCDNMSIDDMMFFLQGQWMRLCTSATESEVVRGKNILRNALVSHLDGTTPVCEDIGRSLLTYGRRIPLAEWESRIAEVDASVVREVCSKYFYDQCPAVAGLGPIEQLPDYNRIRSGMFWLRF

Cc1cc(O)c2c(c1)O[C@@]1(C)CC[C@H]3C(C)(C)CCC[C@]34CO[C@@H]2[C@H]41 [Siccanin]
Effect on mammalian complex I and III ([1]; concentrations as high as 500 µM): did not inhibit
IC50 ([1]; read-out: Siccanin IC50, Mammal, Complex III, NADH-cytochrome c reductase, porcine mitochondria): > 500 µM
Live parasites under the microscope [2]: could not detect live parasites
IC50 ([3]; 3D7, read-out: Growth IC50, parent (wild-type) 3D7): 6.1 ± 1 µM
EC50 ([3]; 3D7, Figure 6a, read-out: Growth inhibition EC50, 3D7 (parent)): 11.7 µM
IC50 ([3]; 3D7, 72 h, 5 mM fumarate, read-out: Growth IC50 in presence of fumarate): 11.5 ± 1.09 µM
IC50 ([3]; 3D7, 72 h, 5 mM succinate, read-out: Growth IC50 in presence of succinate): 10.8 ± 2.16 µM
IC50 ([3]; 3D7, 72 h, no succinate or fumarate added, read-out: Growth IC50, P. falciparum): 8.4 µM
Effect on G3PDH activity ([4]; 10 µM): weakly inhibited
Relative residual activity of G3PDH ([4]; siccanin 10 μM): 72.5 ± 4.0%
IC50 [5]: ~0.09 µM

Source: PMC9319939, “Siccanin Is a Dual-Target Inhibitor of Plasmodium falciparum Mitochondrial Complex II and Complex III” (Pharmaceuticals, 2022)
